Test results as given in US8143293B2, “Kinase inhibitors useful for the treatment of myleoprolific diseases and other proliferative diseases” (Deciphera Pharmaceuticals, LLC, priority 2007, dated 2012).

Legend:
[1] = molecular target: T1, BaF3 cells transfected with wild type p210 BCR-Abl (Homo sapiens, UniProt P00519); test: Ba/F3 p210 whole cell proliferation assay; assay type: cell-based; conditions: 72 hours, Cell Titer Blue; read-out: Whole Cell Antiproliferation IC50, Ba/F3 p210 whole cell proliferation assay
T1 construct: fused on or other part: P11274 (Breakpoint cluster region protein)

[2] = molecular target: T2, BaF3 cells transfected with T315I p210 BCR-Abl (Homo sapiens, UniProt P00519, T315I, cells depend on it); test: Ba/F3 p210 T315I whole cell proliferation assay; assay type: cell-based; conditions: 72 hours, Cell Titer Blue; read-out: Whole Cell Antiproliferation IC50, Ba/F3 p210 T315I whole cell proliferation assay
T2 construct: fused on or other part: P11274 (Breakpoint cluster region protein)

[3] = molecular target: T3, c-Kit kinase (SEQ ID NO:9) (Homo sapiens, UniProt P10721); test: C-Kit kinase (SEQ ID NO:9) assay, pyruvate kinase/lactate dehydrogenase coupled; conditions: <2 min preincubation, ATP 200 μM; read-out: Biochemical IC50, c-Kit Enzyme Assay
T3 construct: contained c-Kit (cKIT residues T544-V976, from ProQinase, 5.4 nM); purchased ProQinase
T3 sequence (P10721 with tags, fused parts or gaps): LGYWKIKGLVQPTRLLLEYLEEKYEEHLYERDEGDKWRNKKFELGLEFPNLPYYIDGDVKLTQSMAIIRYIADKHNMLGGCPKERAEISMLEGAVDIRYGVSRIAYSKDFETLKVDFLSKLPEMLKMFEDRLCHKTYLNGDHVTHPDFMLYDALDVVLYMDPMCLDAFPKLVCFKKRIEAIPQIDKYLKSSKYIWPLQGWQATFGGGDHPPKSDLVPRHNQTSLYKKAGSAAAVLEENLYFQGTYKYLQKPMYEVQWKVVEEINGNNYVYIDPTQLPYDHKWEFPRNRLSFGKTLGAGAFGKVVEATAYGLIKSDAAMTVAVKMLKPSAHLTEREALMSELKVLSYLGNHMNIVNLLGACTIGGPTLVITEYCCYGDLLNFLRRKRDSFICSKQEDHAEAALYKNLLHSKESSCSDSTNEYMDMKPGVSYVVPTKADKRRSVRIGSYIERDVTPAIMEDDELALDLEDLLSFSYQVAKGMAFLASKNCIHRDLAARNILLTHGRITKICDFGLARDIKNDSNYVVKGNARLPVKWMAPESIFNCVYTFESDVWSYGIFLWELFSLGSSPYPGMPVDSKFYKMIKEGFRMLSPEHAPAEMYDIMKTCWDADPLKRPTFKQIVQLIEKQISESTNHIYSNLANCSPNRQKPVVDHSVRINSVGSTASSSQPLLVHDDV
Description: C-Kit Kinase (SEQ ID NO:9) Assay
Activity of c-Kit kinase (SEQ ID NO:9) was determined by following the production of ADP from the kinase reaction through coupling with the pyruvate kinase/lactate dehydrogenase system (e.g., Schindler, et al. Science (2000) 289, 1938-1942). In this assay, the oxidation of NADH (thus the decrease at A340 nm) was continuously monitored spectrophometrically. The reaction mixture (100 μl) contained c-Kit (cKIT residues T544-V976, from ProQinase, 5.4 nM), polyE4Y (1 mg/ml), MgCl2 (10 mM), pyruvate kinase (4 units), lactate dehydrogenase (0.7 units), phosphoenol pyruvate (1 mM), and NADH (0.28 mM) in 90 mM Tris buffer containing 0.2% octyl-glucoside and 1% DMSO, pH 7.5. Test compounds were incubated with […] (SEQ ID NO:9) and other reaction reagents at 22° C. for <2 min before ATP (200 μM) was added to start the reaction. The absorption at 340 nm was monitored continuously for 0.5 hours at 30° C. on Polarstar Optima plate reader (BMG). The reaction rate was calculated using the 0 to 0.5 h time frame. Percent inhibition was obtained by comparison of reaction rate with that of a control (i.e. with no test compound). IC50 values were calculated from a series of percent inhibition values determined at a range of inhibitor concentrations using software routines as implemented in the GraphPad Prism software package.

[4] = molecular target: T4, Abl kinase (SEQ ID NO: 1) (Homo sapiens, UniProt P00519); test: Abl kinase (SEQ ID NO:1) assay, pyruvate kinase/lactate dehydrogenase coupled; conditions: 2 h preincubation, ATP 500 μM; read-out: Biochemical IC50, Abl Enzyme Assay
T4 construct: purchased deCode Genetics
T4 sequence (P00519 with tags, fused parts or gaps): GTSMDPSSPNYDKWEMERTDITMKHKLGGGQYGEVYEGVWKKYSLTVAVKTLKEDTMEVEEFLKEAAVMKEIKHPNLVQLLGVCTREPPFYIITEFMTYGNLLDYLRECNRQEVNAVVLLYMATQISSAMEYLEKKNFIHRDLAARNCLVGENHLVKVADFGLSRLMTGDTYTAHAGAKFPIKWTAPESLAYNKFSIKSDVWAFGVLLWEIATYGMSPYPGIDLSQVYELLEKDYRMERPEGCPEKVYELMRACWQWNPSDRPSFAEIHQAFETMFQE
In short: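 ADP formation was coupled to pyruvate kinase/lactate dehydrogenase, and NADH loss at 340 nm was followed continuously. Compounds were preincubated 2 h at 30° C before 500 μM ATP, and rates from 1.0–2.0 h gave % inhibition and IC50.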

Molecule | GI50 [1] [nM] | GI50 [2] [nM] | IC50 [3] [nM] | IC50 [4] [nM]
1-(2-fluoro-4-(2-(1-methyl-1H-pyrazol-4-yl)pyridin-4-yloxy)phenyl)-3-(3-(1-methylcyclopentyl)isoxazol-5-yl)urea [Example 14] | < 100 | < 100 | < 100 | < 100
Cn1cc(-c2cc(Oc3ccc(NC(=O)Nc4cc(C(C)(C)C)no4)c(F)c3)ccn2)cn1 [Example 1, 1-(3-t-butylisoxazol-5-yl)-3-(2-fluoro-4-(2-(1-methyl-1H-pyrazol-4-yl)pyridin-4-yloxy)phenyl)urea] | < 100 | < 100 | < 100 | < 100
Cn1cc(-c2cc(Oc3ccc(NC(=O)Nc4cc(C(C)(C)C)nn4C)c(F)c3)ccn2)cn1 [Example 2, 1-(3-t-butyl-1-methyl-1H-pyrazol-5-yl)-3-(2-fluoro-4-(2-(1-methyl-1H-pyrazol-4-yl)pyridin-4-yloxy)phenyl)urea] | < 100 | < 100 | < 100 | < 100
Cn1cc(-c2cc(Oc3ccc(NC(=O)Nc4cccc(C(F)(F)F)c4)c(F)c3)ccn2)cn1 [Example 3, 1-(2-fluoro-4-(2-(1-methyl-1H-pyrazol-4-yl)pyridin-4-yloxy)phenyl)-3-(3-(trifluoromethyl)phenyl)urea] | < 100 | < 100 | < 100 | < 100
Cn1cc(-c2cc(Oc3ccc(NC(=O)Nc4cnn(C(C)(C)C)c4)c(F)c3)ccn2)cn1 [Example 5, 1-(1-t-butyl-1H-pyrazol-4-yl)-3-(2-fluoro-4-(2-(1-methyl-1H-pyrazol-4-yl)pyridin-4-yloxy)phenyl)urea] | < 100 | < 100 | < 100 | < 100
Cn1cc(-c2cc(Oc3ccc(NC(=O)Nc4cncc(C(F)(F)F)c4)cc3)ccn2)cn1 [Example 6, 1-(4-(2-(1-methyl-1H-pyrazol-4-yl)pyridin-4-yloxy)phenyl)-3-(5-(trifluoromethyl)pyridin-3-yl)urea] | < 100 | < 100 | < 100 | < 100
Cn1cc(-c2cc(Oc3ccc(NC(=O)Nc4cnn(C(C)(C)C)c4)c(F)c3F)ccn2)cn1 [Example 8, 1-(1-tert-butyl-1H-pyrazol-4-yl)-3-(2,3-difluoro-4-(2-(1-methyl-1H-pyrazol-4-yl)pyridin-4-yloxy)phenyl)urea] | < 100 | < 100 | < 100 | < 100
Cn1cc(-c2cc(Oc3ccc(NC(=O)Nc4cnn(C(C)(C)C)c4C(F)(F)F)c(F)c3)ccn2)cn1 [Example 9, 1-(1-tert-butyl-5-(trifluoromethyl)-1H-pyrazol-4-yl)-3-(2-fluoro-4-(2-(1-methyl-1H-pyrazol-4-yl)pyridin-4-yloxy)phenyl)urea] | < 100 | < 1000 | < 100 | < 100
Cc1c(NC(=O)Nc2ccc(Oc3ccnc(-c4cnn(C)c4)c3)cc2F)cnn1C(C)(C)C [Example 10, 1-(1-tert-butyl-5-methyl-1H-pyrazol-4-yl)-3-(2-fluoro-4-(2-(1-methyl-1H-pyrazol-4-yl)pyridin-4-yloxy)phenyl)urea] | < 100 | < 1000 | < 100 | < 100
Cn1cc(-c2cc(Oc3ccc(NC(=O)Nc4nnc(C(C)(C)C)s4)c(F)c3)ccn2)cn1 [Example 11, 1-(5-tert-butyl-1,3,4-thiadiazol-2-yl)-3-(2-fluoro-4-(2-(1-methyl-1H-pyrazol-4-yl)pyridin-4-yloxy)phenyl)urea] | < 100 | < 100 | < 100 | < 100
CN(C)CCn1nc(C(C)(C)C)cc1NC(=O)Nc1ccc(Oc2ccnc(-c3cnn(C)c3)c2)cc1F [Example 12, 1-(3-tert-butyl-1-(2-(dimethylamino)ethyl)-11H-pyrazol-5-yl)-3-(2-fluoro-4-(2-(1-methyl-1H-pyrazol-4-yl)pyridin-4-yloxy)phenyl)urea] | < 100 | < 100 | < 100 | < 100
Cn1cc(-c2cc(Oc3ccc(NC(=O)Nc4cnn(C5CCCC5)c4)c(F)c3)ccn2)cn1 [Example 15, 1-(1-cyclopentyl-1H-pyrazol-4-yl)-3-(2-fluoro-4-(2-(1-methyl-1H-pyrazol-4-yl)pyridin-4-yloxy)phenyl)urea] | < 100 | < 100 | < 100 | < 100
Cn1cc(-c2cc(Oc3ccc(NC(=O)Nc4cncc(C(F)(F)F)c4)c(F)c3)ccn2)cn1 [Example 21, 1-(2-fluoro-4-(2-(1-methyl-1H-pyrazol-4-yl)pyridin-4-yloxy)phenyl)-3-(5-(trifluoromethyl)pyridin-3-yl)urea] | < 100 | < 100 | < 100 | < 100
CC(C)c1cncc(NC(=O)Nc2ccc(Oc3ccnc(-c4cnn(C)c4)c3)cc2F)c1 [Example 22, 1-(2-fluoro-4-(2-(1-methyl-1H-pyrazol-4-yl)pyridin-4-yloxy)phenyl)-3-(5-isopropylpyridin-3-yl)urea] | < 100 | < 100 | < 100 | < 100
Cn1cc(-c2cc(Oc3ccc(NC(=O)Nc4cc(C(C)(C)C)no4)c(F)c3F)ccn2)cn1 [Example 25, 1-(3-tert-butylisoxazol-5-yl)-3-(2,3-difluoro-4-(2-(1-methyl-1H-pyrazol-4-yl)pyridin-4-yloxy)phenyl)urea] | < 100 | < 100 | < 100 | < 100
Cn1cc(-c2cc(Oc3ccc(NC(=O)Nc4cc(C(F)(F)F)c[nH]c4=O)c(F)c3)ccn2)cn1 [Example 27, 1-(2-fluoro-4-(2-(1-methyl-1H-pyrazol-4-yl)pyridin-4-yloxy)phenyl)-3-(2-oxo-5-(trifluoromethyl)-1,2-dihydropyridin-3-yl)urea] | < 100 | < 100 | < 100 | < 100
Cc1oc(C(C)(C)C)cc1NC(=O)Nc1ccc(Oc2ccnc(-c3cnn(C)c3)c2)cc1F [Example 28, 1-(5-tert-butyl-2-methylfuran-3-yl)-3-(2-fluoro-4-(2-(1-methyl-1H-pyrazol-4-yl)pyridin-4-yloxy)phenyl)urea] | < 100 | < 1000 | < 100 | < 100
Cn1cc(-c2cc(Oc3ccc(NC(=O)Nc4cnc(C(C)(C)C)nc4N4CCOCC4)c(F)c3)ccn2)cn1 [Example 41, 1-(2-tert-butyl-4-morpholinopyrimidin-5-yl)-3-(2-fluoro-4-(2-(1-methyl-1H-pyrazol-4-yl)pyridin-4-yloxy)phenyl)urea] | < 1000 | < 1000 | < 100000 | < 1000
Cn1cc(-c2cc(Oc3ccc(NC(=O)Nc4cc(C(F)(F)F)cnc4-c4cnn(C)c4)c(F)c3)ccn2)cn1 [Example 42, 1-(2-fluoro-4-(2-(1-methyl-1H-pyrazol-4-yl)pyridin-4-yloxy)phenyl)-3-(2-(1-methyl-1H-pyrazol-4-yl)-5-(trifluoromethyl)pyridin-3-yl)urea] | < 100 | < 100 | < 100 | < 100
